Consider 6 molecules from paper doi:10.1101/2023.11.24.568596v1 (biorxiv, 2023).

Some targets named below: ABL1 (Homo sapiens, UniProt P00519); CLK3 (Homo sapiens, UniProt P49761); p38a (Homo sapiens, UniProt Q16539); GPRK5 (Homo sapiens, UniProt P34947); CDKL1 (Homo sapiens, UniProt Q00532); FES (Homo sapiens, UniProt P07332); MAPKAPK2 (Homo sapiens, UniProt P49137).
Common to all, as to conditions: binder
The target of another assay is T1, Haspin (Homo sapiens, UniProt Q8TF76).
T1 sequence (Q8TF76 1-798): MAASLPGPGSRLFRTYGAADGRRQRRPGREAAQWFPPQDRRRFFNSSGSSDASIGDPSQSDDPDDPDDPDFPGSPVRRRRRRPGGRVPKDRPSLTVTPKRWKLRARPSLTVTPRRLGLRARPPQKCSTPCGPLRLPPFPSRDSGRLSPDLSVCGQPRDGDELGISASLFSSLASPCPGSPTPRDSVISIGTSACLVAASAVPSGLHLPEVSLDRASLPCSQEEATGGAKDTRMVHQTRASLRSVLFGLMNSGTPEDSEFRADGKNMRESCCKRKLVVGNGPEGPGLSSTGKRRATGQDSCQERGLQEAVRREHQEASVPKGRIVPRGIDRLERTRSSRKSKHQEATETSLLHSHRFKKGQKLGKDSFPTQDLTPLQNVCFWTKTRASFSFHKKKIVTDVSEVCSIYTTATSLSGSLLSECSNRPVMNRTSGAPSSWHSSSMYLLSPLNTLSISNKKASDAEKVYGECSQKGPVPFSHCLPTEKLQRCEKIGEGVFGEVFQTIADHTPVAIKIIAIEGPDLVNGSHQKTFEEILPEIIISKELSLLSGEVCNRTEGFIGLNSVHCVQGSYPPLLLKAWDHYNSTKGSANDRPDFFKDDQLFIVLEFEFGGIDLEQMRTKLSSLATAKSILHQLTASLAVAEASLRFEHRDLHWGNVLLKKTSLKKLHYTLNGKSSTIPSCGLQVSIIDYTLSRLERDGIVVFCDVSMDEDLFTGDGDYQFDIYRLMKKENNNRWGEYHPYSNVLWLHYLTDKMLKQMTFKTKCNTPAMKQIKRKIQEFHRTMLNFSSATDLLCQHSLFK

In another assay the target is T2, MYT1 (Homo sapiens, UniProt Q99640).
T2 sequence (Q99640 1-499): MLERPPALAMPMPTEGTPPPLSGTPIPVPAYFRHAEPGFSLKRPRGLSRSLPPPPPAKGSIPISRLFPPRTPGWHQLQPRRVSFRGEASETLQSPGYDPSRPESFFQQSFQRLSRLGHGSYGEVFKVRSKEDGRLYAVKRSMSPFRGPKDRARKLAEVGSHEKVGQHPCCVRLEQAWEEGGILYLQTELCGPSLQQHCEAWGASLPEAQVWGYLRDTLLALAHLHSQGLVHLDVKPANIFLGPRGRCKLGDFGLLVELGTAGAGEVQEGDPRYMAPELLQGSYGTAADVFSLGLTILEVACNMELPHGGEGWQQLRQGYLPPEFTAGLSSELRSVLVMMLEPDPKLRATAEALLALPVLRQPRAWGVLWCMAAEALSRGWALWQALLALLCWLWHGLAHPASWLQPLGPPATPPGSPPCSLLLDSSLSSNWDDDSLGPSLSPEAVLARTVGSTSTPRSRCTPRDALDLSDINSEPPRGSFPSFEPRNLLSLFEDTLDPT

Sequence of MAPKAPK2 (P49137 whole entry): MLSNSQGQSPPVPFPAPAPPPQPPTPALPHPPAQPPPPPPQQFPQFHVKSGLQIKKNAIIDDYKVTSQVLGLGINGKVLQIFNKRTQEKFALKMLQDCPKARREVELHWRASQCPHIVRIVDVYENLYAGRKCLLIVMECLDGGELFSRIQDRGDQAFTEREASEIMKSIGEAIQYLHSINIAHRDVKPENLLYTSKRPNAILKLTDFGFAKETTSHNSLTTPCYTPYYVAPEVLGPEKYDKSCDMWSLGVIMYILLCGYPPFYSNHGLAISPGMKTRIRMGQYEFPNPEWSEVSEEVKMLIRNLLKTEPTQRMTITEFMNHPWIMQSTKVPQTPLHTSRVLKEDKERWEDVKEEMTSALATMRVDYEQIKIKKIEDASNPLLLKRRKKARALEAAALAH
Sequence of CDKL1 (Q00532 whole entry): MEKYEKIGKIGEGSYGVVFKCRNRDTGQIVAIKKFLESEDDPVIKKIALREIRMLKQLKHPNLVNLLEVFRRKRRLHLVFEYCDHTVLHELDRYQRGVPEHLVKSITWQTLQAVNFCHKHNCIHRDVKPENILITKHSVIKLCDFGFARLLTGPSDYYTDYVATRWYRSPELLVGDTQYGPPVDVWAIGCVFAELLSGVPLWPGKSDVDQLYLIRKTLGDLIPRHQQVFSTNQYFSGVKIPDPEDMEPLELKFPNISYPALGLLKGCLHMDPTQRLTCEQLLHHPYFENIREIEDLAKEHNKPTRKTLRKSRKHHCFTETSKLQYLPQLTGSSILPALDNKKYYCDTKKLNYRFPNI
Sequence of p38a (Q16539 whole entry): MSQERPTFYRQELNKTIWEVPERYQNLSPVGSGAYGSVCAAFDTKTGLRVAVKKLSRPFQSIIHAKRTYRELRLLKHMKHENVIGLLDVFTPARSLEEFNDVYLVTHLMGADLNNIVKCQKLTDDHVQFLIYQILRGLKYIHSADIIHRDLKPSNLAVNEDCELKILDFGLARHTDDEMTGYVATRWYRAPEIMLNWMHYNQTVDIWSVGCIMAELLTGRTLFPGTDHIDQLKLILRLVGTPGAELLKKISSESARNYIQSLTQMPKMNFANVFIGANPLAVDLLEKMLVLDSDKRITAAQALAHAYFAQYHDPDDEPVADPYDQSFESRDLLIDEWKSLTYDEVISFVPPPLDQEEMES
Sequence of ABL1 (P00519 whole entry): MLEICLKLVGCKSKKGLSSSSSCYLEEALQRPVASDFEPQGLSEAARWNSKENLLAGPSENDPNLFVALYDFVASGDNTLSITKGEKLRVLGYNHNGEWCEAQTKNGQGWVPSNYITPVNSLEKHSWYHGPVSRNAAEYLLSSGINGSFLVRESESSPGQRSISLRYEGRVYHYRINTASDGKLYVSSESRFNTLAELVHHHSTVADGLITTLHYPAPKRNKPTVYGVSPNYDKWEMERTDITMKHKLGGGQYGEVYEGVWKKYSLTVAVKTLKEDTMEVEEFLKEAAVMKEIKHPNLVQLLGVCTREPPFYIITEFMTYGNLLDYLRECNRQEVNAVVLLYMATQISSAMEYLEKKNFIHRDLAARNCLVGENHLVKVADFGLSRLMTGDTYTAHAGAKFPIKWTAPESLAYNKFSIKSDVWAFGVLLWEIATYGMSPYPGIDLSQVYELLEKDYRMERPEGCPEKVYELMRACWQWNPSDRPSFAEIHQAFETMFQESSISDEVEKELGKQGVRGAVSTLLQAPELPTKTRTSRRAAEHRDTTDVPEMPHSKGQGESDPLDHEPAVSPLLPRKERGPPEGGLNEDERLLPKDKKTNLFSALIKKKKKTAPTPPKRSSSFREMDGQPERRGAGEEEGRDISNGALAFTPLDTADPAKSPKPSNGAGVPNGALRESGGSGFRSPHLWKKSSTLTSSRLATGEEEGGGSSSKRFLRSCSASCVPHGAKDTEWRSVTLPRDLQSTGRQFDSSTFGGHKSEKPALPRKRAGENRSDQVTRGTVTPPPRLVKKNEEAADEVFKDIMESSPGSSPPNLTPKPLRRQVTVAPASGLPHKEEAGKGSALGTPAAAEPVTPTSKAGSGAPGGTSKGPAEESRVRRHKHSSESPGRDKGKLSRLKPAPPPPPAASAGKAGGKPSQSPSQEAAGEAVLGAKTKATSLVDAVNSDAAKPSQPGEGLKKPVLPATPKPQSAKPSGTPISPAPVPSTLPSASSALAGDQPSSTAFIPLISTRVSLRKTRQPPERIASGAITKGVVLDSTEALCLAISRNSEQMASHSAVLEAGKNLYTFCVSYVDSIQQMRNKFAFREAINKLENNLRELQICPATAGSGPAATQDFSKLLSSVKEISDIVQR
Sequence of GPRK5 (P34947 whole entry): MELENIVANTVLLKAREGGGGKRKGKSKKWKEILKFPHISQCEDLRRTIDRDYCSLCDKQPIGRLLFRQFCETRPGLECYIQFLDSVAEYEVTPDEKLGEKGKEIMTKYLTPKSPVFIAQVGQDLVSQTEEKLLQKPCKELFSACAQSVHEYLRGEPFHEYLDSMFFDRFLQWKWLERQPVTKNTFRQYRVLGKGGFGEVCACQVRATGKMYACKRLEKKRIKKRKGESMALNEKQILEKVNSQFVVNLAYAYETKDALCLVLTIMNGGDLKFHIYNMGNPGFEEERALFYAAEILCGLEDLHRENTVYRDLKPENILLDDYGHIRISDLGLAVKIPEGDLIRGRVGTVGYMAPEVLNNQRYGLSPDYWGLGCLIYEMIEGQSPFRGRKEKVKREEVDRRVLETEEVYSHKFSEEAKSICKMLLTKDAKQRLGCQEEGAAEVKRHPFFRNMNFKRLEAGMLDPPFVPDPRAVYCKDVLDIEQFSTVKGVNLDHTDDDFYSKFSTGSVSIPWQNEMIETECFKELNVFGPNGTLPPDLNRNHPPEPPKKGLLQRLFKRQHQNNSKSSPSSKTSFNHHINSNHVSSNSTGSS
Sequence of CLK3 (P49761 whole entry): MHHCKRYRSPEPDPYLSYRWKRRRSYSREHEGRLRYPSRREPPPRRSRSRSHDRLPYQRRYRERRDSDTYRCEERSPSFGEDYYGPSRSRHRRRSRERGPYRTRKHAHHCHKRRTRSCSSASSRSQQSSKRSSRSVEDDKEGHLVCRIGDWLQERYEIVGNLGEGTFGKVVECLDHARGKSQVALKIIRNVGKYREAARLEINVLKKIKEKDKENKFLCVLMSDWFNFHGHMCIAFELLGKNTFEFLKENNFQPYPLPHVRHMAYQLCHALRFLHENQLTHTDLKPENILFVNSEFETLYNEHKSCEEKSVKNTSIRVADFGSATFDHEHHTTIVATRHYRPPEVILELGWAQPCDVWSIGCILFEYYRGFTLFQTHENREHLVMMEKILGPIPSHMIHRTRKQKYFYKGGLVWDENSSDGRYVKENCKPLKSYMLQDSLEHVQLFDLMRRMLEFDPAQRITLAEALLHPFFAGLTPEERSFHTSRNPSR
Sequence of FES (P07332 whole entry): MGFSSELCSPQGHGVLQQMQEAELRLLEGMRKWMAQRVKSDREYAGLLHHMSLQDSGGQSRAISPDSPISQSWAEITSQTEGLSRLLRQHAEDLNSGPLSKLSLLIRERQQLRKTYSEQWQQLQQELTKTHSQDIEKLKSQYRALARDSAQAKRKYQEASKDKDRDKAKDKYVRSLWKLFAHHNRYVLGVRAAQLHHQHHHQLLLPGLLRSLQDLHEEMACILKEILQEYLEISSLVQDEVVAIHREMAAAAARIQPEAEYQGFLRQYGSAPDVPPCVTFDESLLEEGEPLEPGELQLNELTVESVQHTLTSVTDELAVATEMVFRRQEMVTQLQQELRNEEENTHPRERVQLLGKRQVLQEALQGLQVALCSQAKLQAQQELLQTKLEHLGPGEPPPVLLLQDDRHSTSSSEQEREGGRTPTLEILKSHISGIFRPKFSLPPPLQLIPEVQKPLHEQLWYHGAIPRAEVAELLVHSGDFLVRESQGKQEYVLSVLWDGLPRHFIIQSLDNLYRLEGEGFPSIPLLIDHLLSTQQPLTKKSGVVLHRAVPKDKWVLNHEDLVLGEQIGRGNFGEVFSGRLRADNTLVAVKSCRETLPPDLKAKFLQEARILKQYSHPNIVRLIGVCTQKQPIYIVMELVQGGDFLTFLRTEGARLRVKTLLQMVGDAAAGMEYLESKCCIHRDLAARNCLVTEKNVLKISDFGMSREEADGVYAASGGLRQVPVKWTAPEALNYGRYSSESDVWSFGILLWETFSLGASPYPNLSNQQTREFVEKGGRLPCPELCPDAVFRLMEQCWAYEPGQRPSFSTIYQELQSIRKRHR

In the case of `Cc1cccc(-c2ccc(-c3cc4cnc(Nc5ccc(C)c(O)c5)nc4n(CCCCN)c3=O)c(Cl)c2)n1` [compound 32, 8-(4-Aminobutyl)-6-(2-chloro-4-(6-methylpyridin-2-yl)phenyl)-2-((3-hydroxy-4-methylphenyl)amino)pyrido[2,3-d]pyrimidin-7(8H)-one], the “ΔTm 32” value is 10.8 °C on ABL1; 0.1 °C at CLK3; 5.3 °C at p38a; -1.5 °C on Haspin; -2.6 °C at MYT1; -0.4 °C on GPRK5. Also, the “ΔTm 32” value on CDKL1 is 1.9 °C; on FES, 8.8 °C; on MAPKAPK2, -0.1 °C.

Regarding `Cc1cccc(-c2ccc(-c3cc4cnc(Nc5ccc(O)cc5)nc4n(CCCCN)c3=O)c(Cl)c2)n1` [compound 31, 8-(4-Aminobutyl)-6-(2-chloro-4-(6-methylpyridin-2-yl)phenyl)-2-((4-hydroxyphenyl)amino) pyrido[2,3-d]pyrimidin-7(8H)-one], the “ΔTm 31” value at ABL1 is 10.6 °C; at CLK3, -0.5 °C; on p38a, 4.7 °C; at Haspin it was -0.4 °C; on MYT1, -2.3 °C; at GPRK5 it was -0.2 °C. Moreover, the “ΔTm 31” value is 2.1 °C at CDKL1, 8.7 °C on FES and -0.1 °C at MAPKAPK2.

As to `Cc1cccc(-c2ccc(-c3cc4cnc(Nc5cc(C(F)(F)F)ccc5C)nc4n(CCCCN)c3=O)c(Cl)c2)n1` [compound 28, 8-(4-Aminobutyl)-6-(2-chloro-4-(6-methylpyridin-2-yl)phenyl)-2-((2-methyl-5-(trifluoromethyl)phenyl)amino)pyrido[2,3-d]pyrimidin-7(8H)-one], the “ΔTm 28” value at ABL1 is 6.9 °C; at CLK3, 0.0 °C; on p38a, 3.9 °C; on Haspin, -1.3 °C; at MYT1 it was -4.3 °C; at GPRK5 it was -0.6 °C. The “ΔTm 28” value at CDKL1 was 0.7 °C; at FES it was 8.5 °C; at MAPKAPK2, -0.2 °C.

As to `Cc1cccc(-c2ccc(-c3cc4cnc(NCCCN5CCNCC5)nc4n(CCCCN)c3=O)c(Cl)c2)n1` [compound 29, 8-(4-Aminobutyl)-6-(2-chloro-4-(6-methylpyridin-2-yl)phenyl)-2-((3-(piperazin-1-yl)propyl)amino)pyrido[2,3-d]pyrimidin-7(8H)-one], the “ΔTm 29” value was 4.0 °C on ABL1; 0.0 °C on CLK3; 3.2 °C on p38a; -1.2 °C at Haspin; -0.9 °C on MYT1; -0.4 °C on GPRK5. For the same molecule, the results for the “ΔTm 29” value at CDKL1, on FES and on MAPKAPK2 were 0.5 °C, 6.0 °C and -0.2 °C, respectively.

For the molecule `Cc1cccc(-c2ccc(-c3cc4cnc(Nc5ccc(CCCO)cc5)nc4n(CCCCN)c3=O)c(Cl)c2)n1` [compound 30, 8-(4-Aminobutyl)-6-(2-chloro-4-(6-methylpyridin-2-yl)phenyl)-2-((4-(3-hydroxypropyl)phenyl)amino)pyrido[2,3-d]pyrimidin-7(8H)-one], the “ΔTm 30” value on ABL1 is 10.3 °C; at CLK3, -0.2 °C; at p38a, 5.5 °C; on Haspin it was 0.4 °C; at MYT1, -2.8 °C; on GPRK5, -0.9 °C. Further, the “ΔTm 30” value at CDKL1 is 1.6 °C; at FES it was 9.1 °C; on MAPKAPK2, -0.3 °C.

Consider `Cc1cccc(-c2ccc(-c3cc4cnc(NCCCN5CCCC5=O)nc4n(CCCCN)c3=O)c(Cl)c2)n1` [compound 27, MR30], for which the “ΔTm MR30 (27)” value on ABL1 is 3.0 °C; at CLK3, -0.3 °C; at p38a it was 3.6 °C; on Haspin, -0.7 °C; on MYT1 it was -2.8 °C; at GPRK5 it was -1.1 °C. In addition, the “ΔTm MR30 (27)” value was 0.9 °C at CDKL1, 5.0 °C on FES and -0.3 °C at MAPKAPK2.
